According to patent US20100076015A1, “Aminopyridine Derivatives” (VANTIA LIMITED, priority 2008, published 2010):

Molecular target: T1, Human KLK1 (Homo sapiens, UniProt P06870)
T1 construct: purchased Callbiochem (Calbiochem)
Experiment: Determination of the IC50 for KLK1 (fluorogenic substrate H-DVal-Leu-Arg-AFC)
Type: biochemical
Conditions: 37° C.
How it was run: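 Human KLK1 incubated at 37 °C with fluorogenic substrate H-DVal-Leu-Arg-AFC and a range of test compound concentrations. Residual activity was taken as initial reaction rate from absorbance change at 410 nm, and the IC50 derived from it.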

T1 sequence (P06870 25-262): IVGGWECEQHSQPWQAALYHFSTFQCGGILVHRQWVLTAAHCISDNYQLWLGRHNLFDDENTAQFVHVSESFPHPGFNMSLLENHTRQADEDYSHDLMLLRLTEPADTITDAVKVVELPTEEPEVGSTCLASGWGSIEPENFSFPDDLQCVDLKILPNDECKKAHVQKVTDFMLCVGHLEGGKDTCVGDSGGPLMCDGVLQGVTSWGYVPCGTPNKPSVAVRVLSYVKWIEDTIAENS

SMILES | IC50 [nM]
Nc1ccc(CNC(=O)[C@H](Cc2csc3ccccc23)NC(=O)[C@H]2CCCCN2)cn1 [Example 78, (R)-Piperidine-2-carboxylic acid {(S)-1-[(6-amino-pyridin-3-ylmethyl)-carbamoyl]-2-benzo[b]thiophen-3-yl-ethyl}-amide] | 1.2
CN1CCC[C@@H]1C(=O)N[C@@H](Cc1ccncc1)C(=O)NCc1ccc(N)nc1 [Example 112, (R)-1-Methyl-pyrrolidine-2-carboxylic acid {(S)-1-[(6-amino-pyridin-3-ylmethyl)-carbamoyl]-2-pyridin-4-yl-ethyl}-amide] | 257
Cc1cc[nH]c1C(=O)N[C@@H](Cc1ccc(C(F)(F)F)cc1)C(=O)NCc1ccc(N)nc1 [Example 258, 3-Methyl-1H-pyrrole-2-carboxylic acid [(S)-1-[(6-amino-pyridin-3-ylmethyl)-carbamoyl]-2-(4-trifluoromethyl-phenyl)-ethyl]-amide] | 10.3
COC(=O)c1ccc(C(=O)N[C@@H](Cc2cccc(C(F)(F)F)c2)C(=O)NCc2ccc(N)nc2)[nH]1 [Example 274, 5-[(S)-1-[(6-Amino-pyridin-3-ylmethyl)-carbamoyl]-2-(3-trifluoromethyl-phenyl)-ethylcarbamoyl]-1H-pyrrole-2-carboxylic acid methyl ester] | 4.8
Cc1nc(N)ccc1CNC(=O)[C@@H](Cc1ccc(Cl)c(Cl)c1)NC(=O)[C@@H](N)c1ccccc1 [Example 197, (R)—N-(6-Amino-2-methyl-pyridin-3-ylmethyl)-2-((S)-2-amino-2-phenyl-acetylamino)-3-(3,4-dichloro-phenyl)-propionamide] | 84.6
CCC(C)[C@H](C(=O)N[C@@H](Cc1cccc(F)c1)C(=O)NCc1ccc(N)nc1)N(C)C (stereo partly drawn) [Example 377, (R)-2-Dimethylamino-3-methyl-pentanoic acid [(S)-1-[(6-amino-pyridin-3-ylmethyl)-carbamoyl]-2-(3-fluoro-phenyl)-ethyl]-amide] | 32.2
CN1CCC[C@@H]1C(=O)N[C@@H](Cc1ccccc1Cl)C(=O)NCc1ccc(N)nc1 [Example 109, (R)-1-Methyl-pyrrolidine-2-carboxylic acid [(S)-1-[(6-amino-pyridin-3-ylmethyl)-carbamoyl]-2-(2-chloro-phenyl)-ethyl]-amide] | 21.7
Cc1cc(C)c(C(=O)N[C@@H](Cc2ccc(-c3ccccc3)cc2)C(=O)NCc2ccc(N)nc2)[nH]1 [Example 252, 3,5-Dimethyl-1H-pyrrole-2-carboxylic acid {(S)-1-[(6-amino-pyridin-3-ylmethyl)-carbamoyl]-2-biphenyl-4-yl-ethyl}-amide] | 43.2
Nc1ccc(CNC(=O)[C@H](Cc2ccc(F)c(F)c2)NC(=O)CNCCc2ccccc2)cn1 [Example 160, (S)—N-(6-Amino-pyridin-3-ylmethyl)-3-(3,4-difluoro-phenyl)-2-(2-phenethylamino-acetylamino)-propionamide] | 185
CN(C)[C@@H](CO)C(=O)N[C@@H](CC1CCCCC1)C(=O)NCc1ccc(N)nc1 [Example 386, (S)—N-{(S)-1-[(6-Amino-pyridin-3-ylmethyl)-carbamoyl]-2-cyclohexyl-ethyl}-2-dimethylamino-3-hydroxy-propionamide] | 260
CN1CCC[C@@H]1C(=O)N[C@@H](Cc1ccc(C(C)(C)C)cc1)C(=O)NCc1ccc(N)nc1 [Example 102, (R)-1-Methyl-pyrrolidine-2-carboxylic acid [(S)-1-[(6-amino-pyridin-3-ylmethyl)-carbamoyl]-2-(4-tert-butyl-phenyl)-ethyl]-amide] | 258
Nc1ccc(CNC(=O)[C@H](Cc2cccc(F)c2)NC(=O)c2cc3ccccc3[nH]2)cn1 [Example 311, 1H-Indole-2-carboxylic acid [(S)-1-[(6-amino-pyridin-3-ylmethyl)-carbamoyl]-2-(3-fluoro-phenyl)-ethyl]-amide] | 46.5
CCN(C)[C@@H](C)C(=O)N[C@@H](Cc1ccc(F)cc1)C(=O)NCc1ccc(N)nc1 [Example 367, (S)—N-[(S)-1-[(6-Amino-pyridin-3-ylmethyl)-carbamoyl]-2-(4-fluoro-phenyl)-ethyl]-2-(ethyl-methyl-amino)-propionamide] | 10.8
Nc1ccc(CNC(=O)[C@H](Cc2ccc(F)cc2)NC(=O)c2ncc[nH]2)cn1 [Example 287, 1H-Imidazole-2-carboxylic acid [(S)-1-[(6-amino-pyridin-3-ylmethyl)-carbamoyl]-2-(4-fluoro-phenyl)-ethyl]-amide] | 75.6
CCCN(C)[C@@H](C)C(=O)N[C@@H](Cc1ccc(F)c(F)c1)C(=O)NCc1ccc(N)nc1 [Example 346, (S)—N-[(S)-1-[(6-Amino-pyridin-3-ylmethyl)-carbamoyl]-2-(3,4-difluoro-phenyl)-ethyl]-2-(methyl-propyl-amino)-propionamide] | 21.3
Cc1nc(N)ccc1CNC(=O)[C@H](Cc1ccc(F)c(F)c1)NC(=O)CN1CCCCC1 [Example 430, (S)—N-(6-Amino-2-methyl-pyridin-3-ylmethyl)-3-(3,4-difluoro-phenyl)-2-(2-piperidin-1-yl-acetylamino)-propionamide] | 59.8

SMILES | IC50 [nM]
CN(C)[C@H](Cc1ccccc1)C(=O)N[C@@H](CC1CCCC2CCCCC21)C(=O)NCc1ccc(N)nc1 (stereo partly drawn) [Example 397, (R)—N-[(S)-1-[(6-Amino-pyridin-3-ylmethyl)-carbamoyl]-2-(decahydro-naphthalen-1-yl)-ethyl]-2-dimethylamino-3-phenyl-propionamide] | 44.2
CCC(C)[C@@H](N)C(=O)N[C@@H](Cc1cc(F)cc(F)c1)C(=O)NCc1ccc(N)nc1 (stereo partly drawn) [Example 39, (R)-2-Amino-3-methyl-pentanoic acid [(S)-1-[(6-amino-pyridin-3-ylmethyl)-carbamoyl]-2-(3,5-difluoro-phenyl)-ethyl]-amide] | 5.8
CN1CCC[C@@H]1C(=O)N[C@@H](Cc1ccccc1)C(=O)NCc1ccc(N)nc1 [Example 101, (R)-1-Methyl-pyrrolidine-2-carboxylic acid {(S)-1-[(6-amino-pyridin-3-ylmethyl)-carbamoyl]-2-phenyl-ethyl}-amide] | 24.1
Nc1ccc(CNC(=O)[C@H](NC(=O)[C@@H]2CCCN2)C(C2CCCCC2)C2CCCCC2)cn1 [Example 215, (S)-Pyrrolidine-2-carboxylic acid {(R)-1-[(6-amino-pyridin-3-ylmethyl)-carbamoyl]-2,2-dicyclohexyl-ethyl}-amide] | 12.6
CCN(CC)CC(=O)N[C@@H](Cc1ccc(F)c(F)c1)C(=O)NCc1ccc(N)nc1 [Example 10, (S)—N-(6-Amino-pyridin-3-ylmethyl)-2-(2-diethylamino-acetylamino)-3-(3,4-difluoro-phenyl)-propionamide] | 13.7
Nc1ccc(CNC(=O)[C@H](Cc2ccc(Cl)c(Cl)c2)NC(=O)[C@H](N)c2ccccc2)cn1 [Example 57, (S)-2-((R)-2-Amino-2-phenyl-acetylamino)-N-(6-amino-pyridin-3-ylmethyl)-3-(3,4-dichloro-phenyl)-propionamide] | 4.6
CN1CCC[C@@H]1C(=O)N[C@@H](Cc1cccc(F)c1)C(=O)NCc1ccc(N)nc1 [Example 99, (R)-1-Methyl-pyrrolidine-2-carboxylic acid [(S)-1-[(6-amino-pyridin-3-ylmethyl)-carbamoyl]-2-(3-fluoro-phenyl)-ethyl]-amide] | 17.1
CC1CCCC(C)N1CC(=O)N[C@@H](Cc1ccc(Cl)cc1)C(=O)NCc1ccc(N)nc1 (stereo partly drawn) [Example 426, (S)—N-(6-Amino-pyridin-3-ylmethyl)-3-(4-chloro-phenyl)-2-[2-(2,6-dimethyl-piperidin-1-yl)-acetylamino]-propionamide] | 2.7
CC(C)C[C@@H](N)C(=O)N[C@@H](CC1CCCC2CCCCC21)C(=O)NCc1ccc(N)nc1 (stereo partly drawn) [Example 16, (R)-2-Amino-4-methyl-pentanoic acid [(S)-1-[(6-amino-pyridin-3-ylmethyl)-carbamoyl]-2-(decahydro-naphthalen-1-yl)-ethyl]-amide] | 1.1
CN[C@@H](C(=O)N[C@@H](Cc1cccc(Cl)c1)C(=O)NCc1ccc(N)nc1)C(C)C [Example 341, (R)—N-[(S)-1-[(6-Amino-pyridin-3-ylmethyl)-carbamoyl]-2-(3-chloro-phenyl)-ethyl]-3-methyl-2-methylamino-butyramide] | 2.2
CC(C)N1CCC[C@@H]1C(=O)N[C@@H](Cc1ccccc1F)C(=O)NCc1ccc(N)nc1 [Example 125, (R)-1-Isopropyl-pyrrolidine-2-carboxylic acid [(S)-1-[(6-amino-pyridin-3-ylmethyl)-carbamoyl]-2-(2-fluoro-phenyl)-ethyl]-amide] | 8.8
CCC(C)[C@@H](C(=O)N[C@@H](Cc1ccc(F)c(F)c1)C(=O)NCc1ccc(N)nc1)N(C)C(C)C (stereo partly drawn) [Example 353, (S)-2-(Isopropyl-methyl-amino)-3-methyl-pentanoic acid [(S)-1-[(6-amino-pyridin-3-ylmethyl)-carbamoyl]-2-(3,4-difluoro-phenyl)-ethyl]-amide] | 7.8
Cc1nc(N)ccc1CNC(=O)[C@H](Cc1ccc(Cl)c(Cl)c1)NC(=O)[C@H](N)C(C)(C)C [Example 199, (R)-2-Amino-N-[(S)-1-[(6-amino-2-methyl-pyridin-3-ylmethyl)-carbamoyl]-2-(3,4-dichloro-phenyl)-ethyl]-3,3-dimethyl-butyramide] | 1.4
CCN(C)[C@@H](C)C(=O)N[C@@H](Cc1cccc(C(F)(F)F)c1)C(=O)NCc1ccc(N)nc1 [Example 416, (S)—N-[(S)-1-[(6-Amino-pyridin-3-ylmethyl)-carbamoyl]-2-(3-trifluoromethyl-phenyl)-ethyl]-2-(ethyl-methyl-amino)-propionamide] | 6.2
Cc1cc(C)c(C(=O)N[C@@H](Cc2ccc(F)c(F)c2)C(=O)NCc2ccc(N)nc2C)[nH]1 [Example 284, 3,5-Dimethyl-1H-pyrrole-2-carboxylic acid [(S)-1-[(6-amino-2-methyl-pyridin-3-ylmethyl)-carbamoyl]-2-(3,4-difluoro-phenyl)-ethyl]-amide] | 5.2
